Experimental data from PMC13014312, “Fluorescence Discrimination of Cancer from Inflammation by Selective Targeting Folate Receptor α” (Chemical & Biomedical Imaging, 2025).
Like-named read-outs stand apart in the source and are kept apart here.

Experiments:
[1] = target: T1, folate receptor α (FRα) (Homo sapiens, UniProt P15328); assay: 3H-folic acid competition radioligand assay on […] cells transfected with FRα; assay type: cell-based
T1 construct: gene FOLR1

[2] = target: T2, folate receptor β (FRβ) (Homo sapiens, UniProt P14207); assay: 3H-folic acid competition radioligand assay on […] cells transfected with FRβ; assay type: cell-based
T2 construct: gene FOLR2
T2 sequence (P14207 17-230): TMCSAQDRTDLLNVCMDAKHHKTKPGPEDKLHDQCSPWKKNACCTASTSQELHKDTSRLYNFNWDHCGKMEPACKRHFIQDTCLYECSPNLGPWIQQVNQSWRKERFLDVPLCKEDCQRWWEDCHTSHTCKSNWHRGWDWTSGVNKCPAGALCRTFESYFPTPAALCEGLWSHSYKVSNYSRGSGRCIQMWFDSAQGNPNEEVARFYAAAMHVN

[3] = target: T2, folate receptor β (FRβ); assay: as above

T1 sequence (P15328 25-234): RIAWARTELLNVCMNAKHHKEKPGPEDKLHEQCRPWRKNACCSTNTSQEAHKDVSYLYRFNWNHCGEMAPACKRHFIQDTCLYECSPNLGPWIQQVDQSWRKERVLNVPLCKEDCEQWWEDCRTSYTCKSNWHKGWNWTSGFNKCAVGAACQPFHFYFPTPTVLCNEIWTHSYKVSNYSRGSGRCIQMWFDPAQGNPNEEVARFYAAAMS

Row | Compound | Kd [1] [nM] | Kd [2] [nM] | Kd [3]
1 | CC1(C)C(=CC=C2CCCC(C=CC3=[N+](CCCCS(=O)(=O)[O-])c4ccc(S(=O)(=O)O)cc4C3(C)C)=C2Oc2ccc(C[C@H](NC(=O)c3ccc(CCc4c[nH]c5[nH]c(N)nc(=O)c45)cc3)C(=O)O)cc2)N(CCCCS(=O)(=O)O)c2ccc(S(=O)(=O)O)cc21 [NY-07] | 61.7 | 487 | 
2 | Nc1nc(=O)c2nc(CNc3ccc(C(=O)N[C@@H](CCC(=O)O)C(=O)O)cc3)cnc2[nH]1 [folate, folic acid] |  |  | Assessment of K d of folate, OTL38, and NY-07 to FRβ.
